According to ChEMBL document CHEMBL1201862, “PubChem BioAssay data set” (2004):
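Each compound was tested at five concentrations against cells in 96-well plates for 48 hours. GI50 = concentration required for 50% inhibition of growth.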 Calls of active or inactive are those of the source. No stated cut-off is given here; in the data, active = GI50 up to about 1.1 µM and inactive = higher.

Assays:
Test in all cases: growth of human tumour cells (NCI), 48 h
[1] = tested on: SW-620
[2] = tested on: U-251
[3] = tested on: A549
[4] = tested on: K562
[5] = tested on: HOP-92
[6] = tested on: HT-29
[7] = tested on: UACC-62
[8] = tested on: SK-OV-3
[9] = tested on: SF-268
[10] = tested on: OVCAR-8
[11] = tested on: EKVX
[12] = tested on: SK-MEL-28
[13] = tested on: M14
[14] = tested on: OVCAR-4
[15] = tested on: UACC-257
[16] = tested on: HOP-62
[17] = tested on: A498
[18] = tested on: RPMI-8226

| SMILES | GI50 [1] | GI50 [2] | GI50 [3] | GI50 [4] | GI50 [5] | GI50 [6] | GI50 [7] | GI50 [8] | GI50 [9] | GI50 [10] | GI50 [11] | GI50 [12] | GI50 [13] | GI50 [14] | GI50 [15] | GI50 [16] | GI50 [17] | GI50 [18] |
| --- | --- | --- | --- | --- | --- | --- | --- | --- | --- | --- | --- | --- | --- | --- | --- | --- | --- | --- |
| COc1cc(/C=C(\NC(=O)c2ccccc2)c2nc3cncnc3[nH]2)cc(OC)c1OC | > 100 µM (inactive) | > 100 µM (inactive) | > 100 µM (inactive) | > 100 µM (inactive) | 88.1 µM (inactive) | > 100 µM (inactive) | > 100 µM (inactive) | > 100 µM (inactive) | > 100 µM (inactive) | > 100 µM (inactive) | > 100 µM (inactive) | > 100 µM (inactive) | > 100 µM (inactive) | > 100 µM (inactive) | – | – | – | – |
| O=C(N[C@@H]1C=CCC[C@@H]1c1ccccc1)OCc1ccccc1 | 22.9 µM (inactive) | 17.5 µM (inactive) | 25.6 µM (inactive) | 23.7 µM (inactive) | 16.5 µM (inactive) | 23.7 µM (inactive) | 14.1 µM (inactive) | 30.4 µM (inactive) | 25 µM (inactive) | 20.1 µM (inactive) | 23.2 µM (inactive) | 21.9 µM (inactive) | 17.9 µM (inactive) | 18.6 µM (inactive) | 17.5 µM (inactive) | 18.5 µM (inactive) | 19.1 µM (inactive) | 18 µM (inactive) |
| Nc1nc(Cl)cc(NCCCCCCCCCCNc2cc(Cl)nc(N)n2)n1 | 35.6 µM (inactive) | 4.21 µM (inactive) | 3.21 µM (inactive) | 0.0897 µM (active) | 28.6 µM (inactive) | 8.93 µM (inactive) | 0.0226 µM (active) | 87.3 µM (inactive) | 3.26 µM (inactive) | 12.2 µM (inactive) | 4 µM (inactive) | – | 6.44 µM (inactive) | 8.13 µM (inactive) | 1.05 µM (active) | 22 µM (inactive) | – | 2.18 µM (inactive) |
| CC(C)COC(=O)c1ccc(/N=C\c2ccc(/C=N/c3ccc(C(=O)OCC(C)C)cc3)cc2)cc1 | > 100 µM (inactive) | > 100 µM (inactive) | > 100 µM (inactive) | > 100 µM (inactive) | > 100 µM (inactive) | > 100 µM (inactive) | > 100 µM (inactive) | > 100 µM (inactive) | > 100 µM (inactive) | > 100 µM (inactive) | – | > 100 µM (inactive) | > 100 µM (inactive) | > 100 µM (inactive) | > 100 µM (inactive) | > 100 µM (inactive) | – | > 100 µM (inactive) |
| C#CCN(Cc1ccc2nc(-c3ccccc3)c(Cl)nc2c1)c1cc(OC)c(OC)c(OC)c1 | 15 µM (inactive) | 27 µM (inactive) | 86.9 µM (inactive) | 20.1 µM (inactive) | > 100 µM (inactive) | > 100 µM (inactive) | > 100 µM (inactive) | > 100 µM (inactive) | 40.4 µM (inactive) | > 100 µM (inactive) | > 100 µM (inactive) | > 100 µM (inactive) | > 100 µM (inactive) | > 100 µM (inactive) | 39.2 µM (inactive) | > 100 µM (inactive) | > 100 µM (inactive) | 16.1 µM (inactive) |
| CCOc1ccc(-c2oc(/C=N/NS(=O)(=O)c3ccc(C)cc3)c([N+](=O)[O-])c2-c2ccc(OCC)cc2)cc1 | 2.61 µM (inactive) | 8.22 µM (inactive) | 19.4 µM (inactive) | 3.79 µM (inactive) | 8.85 µM (inactive) | 5.19 µM (inactive) | 7.11 µM (inactive) | 15.4 µM (inactive) | 17.9 µM (inactive) | 15.6 µM (inactive) | 26.1 µM (inactive) | 12.4 µM (inactive) | 12.4 µM (inactive) | 11.3 µM (inactive) | 16 µM (inactive) | 21.3 µM (inactive) | 14.9 µM (inactive) | 2.58 µM (inactive) |
| C[C@@]1(Cc2ccccc2)C(=O)N2[C@@H](CO)C(c3ccccc3)O[C@]2(C)c2ccccc21 (stereo partly drawn) | 91.6 µM (inactive) | > 100 µM (inactive) | > 100 µM (inactive) | > 100 µM (inactive) | > 100 µM (inactive) | – | > 100 µM (inactive) | > 100 µM (inactive) | > 100 µM (inactive) | > 100 µM (inactive) | > 100 µM (inactive) | > 100 µM (inactive) | > 100 µM (inactive) | > 100 µM (inactive) | – | > 100 µM (inactive) | – | 76 µM (inactive) |
| O=C1Cc2ccccc2N1/N=C\c1ccc(O)cc1 | > 100 µM (inactive) | > 100 µM (inactive) | 64.9 µM (inactive) | 61.4 µM (inactive) | > 100 µM (inactive) | > 100 µM (inactive) | > 100 µM (inactive) | > 100 µM (inactive) | 50.6 µM (inactive) | > 100 µM (inactive) | 82.2 µM (inactive) | > 100 µM (inactive) | > 100 µM (inactive) | > 100 µM (inactive) | 47 µM (inactive) | 49.7 µM (inactive) | > 100 µM (inactive) | 58.1 µM (inactive) |
